Target: α-glucosidase enzyme (Saccharomyces cerevisiae, UniProt P53341)
Experiment: Kinetic study against α-glucosidase
Type: biochemical, S. cerevisiae

Sequence of α-glucosidase enzyme (P53341 whole entry): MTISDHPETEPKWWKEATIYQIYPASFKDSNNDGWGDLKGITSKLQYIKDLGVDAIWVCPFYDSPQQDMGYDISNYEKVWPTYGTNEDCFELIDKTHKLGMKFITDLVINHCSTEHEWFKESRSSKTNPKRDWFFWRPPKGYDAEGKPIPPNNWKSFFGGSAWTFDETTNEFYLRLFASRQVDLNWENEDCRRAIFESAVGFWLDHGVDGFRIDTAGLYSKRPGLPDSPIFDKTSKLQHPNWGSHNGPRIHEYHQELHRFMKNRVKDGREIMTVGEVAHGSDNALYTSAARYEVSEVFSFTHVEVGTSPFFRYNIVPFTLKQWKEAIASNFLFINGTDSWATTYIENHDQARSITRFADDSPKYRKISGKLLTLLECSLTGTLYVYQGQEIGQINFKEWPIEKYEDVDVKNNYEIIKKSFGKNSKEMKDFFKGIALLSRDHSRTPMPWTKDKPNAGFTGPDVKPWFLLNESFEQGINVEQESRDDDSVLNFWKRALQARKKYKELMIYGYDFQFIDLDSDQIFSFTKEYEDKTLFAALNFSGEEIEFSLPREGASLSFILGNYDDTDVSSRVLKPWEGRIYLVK

Compound: N#CC1=C(N)Oc2c(c(=O)[nH]c3ccccc23)C1c1cccc(OCc2cn(Cc3ccccc3)nn2)c1 (centres unmarked) [8k, 2-Amino-4-(3-((1-benzyl-1H-1,2,3-triazol-4-yl)methoxy)phenyl)-5-oxo-5,6-dihydro-4H-pyrano[3,2-c]quinoline-3-carbonitrile]
- Ki: 1300 nM
- inhibition mode (Lineweaver–Burk plot: Km increased, Vmax unchanged): competitive inhibitor
